Consider five compounds from ChEMBL document CHEMBL1132313, “32-Indolyl ether derivatives of ascomycin: three-dimensional structures of complexes with FK506-binding protein” (J Med Chem, 1999).

A short description of data set [1]: Relative binding affinity of compound for FK-506 binding protein (FKBP).
A short description of data set [2]: Inhibition of calcineurin phosphatase activity by the compound.
The test system of data set [3] is T-cell. Description: Compound was evaluated for inhibition of T-cell proliferation induced by PMA-ionomycin. It is filed as functional.
Data set [4] in a line: Off-rate of FK-506 binding protein (FKBP) drug complex from their complexes with calcineurin. It is filed as ADME.
A short description of data set [5]: Relative binding affinity of compound for FK506 binding protein (FKBP).

A word on the IC50: it is the concentration that inhibits the measured activity by half. Turning to `CC[C@@H]1/C=C(/C)[C@@H](O)[C@@H](C)C[C@H](OC)[C@H]2O[C@@](O)(C(=O)C(=O)N3CCCC[C@H]3C(=O)O[C@H](/C(C)=C/[C@@H]3CC[C@@H](O)[C@H](OC)C3)[C@H](C)[C@@H](O)CC1=O)[C@H](C)C[C@@H]2OC`, the half-inhibitory concentration (IC50) in data set [1] is 0.7 nM; in data set [2] it was 2500 nM.
Regarding `CC[C@@H]1/C=C(/C)C[C@H](C)C[C@H](OC)C2O[C@@](O)(C(=O)C(=O)N3CCCC[C@H]3C(=O)O[C@H](/C(C)=C/[C@@H]3CC[C@@H](Oc4ccc5c(ccn5CCO)c4)[C@H](OC)C3)[C@H](C)[C@@H](O)CC1=O)[C@H](C)C[C@@H]2OC`, the T-cell proliferation inhibition in data set [3] is recorded as 0.19 nM. The concentration for half-maximal inhibition (IC50) in data set [1] came to 5.06 nM; in data set [2], 11.4 nM. The Off-rate in data set [4] was determined as 254 min.
With `CC[C@@H]1/C=C(/C)C[C@H](C)C[C@H](OC)C2O[C@@](O)(C(=O)C(=O)N3CCCC[C@H]3C(=O)O[C@H](/C(C)=C/[C@@H]3CC[C@@H](Oc4ccc5c(ccn5CC)c4)[C@H](OC)C3)[C@H](C)[C@@H](O)CC1=O)[C@H](C)C[C@@H]2OC`, the T-cell proliferation inhibition in data set [3] is given as 0.78 nM. Moreover, the IC50 turned out to be 27 nM in data set [1] and 8.21 nM in data set [2].
The compound `C=CC[C@@H]1C=C(C)CC(C)C[C@H](OC)[C@H]2O[C@@](O)(C(=O)C(=O)N3CCCC[C@H]3C(=O)O[C@H](/C(C)=C/[C@@H]3CC[C@@H](O)[C@H](OC)C3)[C@H](C)[C@@H](O)CC1=O)[C@H](C)C[C@@H]2OC` (single isomer, unassigned) [TACROLIMUS ANHYDROUS] displayed a T-cell proliferation inhibition in data set [3] of 0.3 nM. In data set [4], the Off-rate came out at 15.1 min. Also, the results for the IC50 in data set [2] and in data set [5] were 11.1 nM and 0.39 nM, respectively.
`CC[C@@H]1/C=C(/C)[C@@H](O)[C@H](C)C[C@H](OC)C2O[C@@](O)(C(=O)C(=O)N3CCCC[C@H]3C(=O)O[C@H](/C(C)=C/[C@@H]3CC[C@@H](Oc4ccc5c(ccn5C)c4)[C@H](OC)C3)[C@H](C)[C@@H](O)CC1=O)[C@H](C)C[C@@H]2OC` yielded a T-cell proliferation inhibition in data set [3] of 5.1 nM. In data set [2], the half-inhibitory concentration (IC50) stood at 79 nM.
